# Key:
# hiPSC-VSMCs [1] = assay: Contractility of hiPSC-VSMCs in response to vasoactive agents; assay type: cell-based, human; settings: hiPSC-VSMCs treated with agent; FIG. 6B
# Text: (§1) A significant difference also between cells treated with carbachol and potassium chloride was observed (FIG. 6B).
# hiPSC-VSMCs [2] = assay: Intracellular calcium flux (Fluo4 fluorescence) in hiPSC-VSMCs; assay type: cell-based, human; settings: FIG. 6A
# Text: as §1
Structure (SMILES),contractility (hiPSC-VSMCs [1]),Fluo4 fluorescence (intracellular calcium flux) (hiPSC-VSMCs [2])
C[N+](C)(C)CCOC(N)=O [carbachol],significantly increased contractility,dramatic increase
"[Cl-].[K+] [KCl, potassium chloride]",significantly increased contractility,–
